Source: patent publication US20070179060A1, “6-(Poly-substituted aryl)-4-aminopicolinates and their use as herbicides” (priority 2006, published 2007)

Experiments:
[1] = tested on: lambsquarter (Chenopodium album); assay: Postemergence herbicidal activity; type: in vivo; conditions: post-emergent, 140 g ai/ha, after 14 days; for pest or weed control at 140 g/ha: Chenopodium album, post-emergence, 336 h, read-out: % Control CHEAL
Summary of the method: (§1)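 Compounds were applied postemergence by track sprayer delivering 187 L/ha, using a mixed organic/aqueous carrier containing crop oil concentrate and surfactant; solvent-blank sprays served as controls. Test plants were at the first to second true leaf stage after 7-21 days' greenhouse growth, were sub-irrigated after treatment, and were evaluated by probit analysis.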

[2] = tested on: velvetleaf (Abutilon theophrasti); assay: Postemergence herbicidal activity; type: in vivo; conditions: post-emergent, 140 g ai/ha, after 14 days; for pest or weed control at 140 g/ha: Abutilon theophrasti, post-emergence, 336 h, read-out: % Control ABUTH
Summary of the method: as §1

[3] = tested on: redroot pigweed (Amaranthus retroflexus); assay: Postemergence herbicidal activity; type: in vivo; conditions: post-emergent, 140 g ai/ha, after 14 days; for pest or weed control at 140 g/ha: Amaranthus retroflexus, post-emergence, 336 h, read-out: % Control AMARE
Summary of the method: as §1

Papaver rhoeas = assay: Postemergence herbicidal activity in cereal crops; type: in vivo; conditions: post-emergent, after 20-22 days; for pest or weed control at 17.5 g/ha: 17.5 g ai/ha
Protocol: (§2) When required to ensure good germination and healthy plants, a fungicide treatment and/or other chemical or physical treatment was applied. The plants were grown for 7-36 days in a greenhouse with an approximate 14 hour photoperiod which was maintained at about 18° C. during the day and 17° C. during the night. Nutrients and water were added on a regular basis and supplemental lighting was provided with overhead metal halide 1000-Watt lamps as necessary. The plants were employed for testing when they reached the second or third true leaf stage. […] The concentrated stock solutions obtained were diluted with 16 mL of an aqueous mixture containing acetone, water, isopropyl alcohol, DMSO, Agri-dex crop oil concentrate, and Triton® X-77 surfactant in a 64.7:26.0:6.7:2.0:0.7:0.01 v/v ratio to obtain spray solutions containing the highest application rates. […] Compound requirements are based upon a 12 mL application volume at a rate of 187 L/ha. Formulated compounds were applied to the plant material with an overhead Mandel track sprayer equipped with a […] nozzles calibrated to deliver 187 L/ha over an application area of 0.503 square meters at a spray height of 18 inches (43 cm) above average plant canopy height. Control plants were sprayed in the same manner with the blank. The treated plants and control plants were placed in a greenhouse as described above and watered by sub-irrigation to prevent wash-off of the test compounds.

Veronica persica = assay: Postemergence herbicidal activity in cereal crops; type: in vivo; conditions: post-emergent, after 20-22 days; for pest or weed control at 17.5 g/ha: 17.5 g ai/ha
Protocol: as §2

[4] = tested on: wheat (Triticum aestivum); assay: Postemergence herbicidal activity in cereal crops; type: in vivo; conditions: crop, post-emergent, after 20-22 days; for plant injury at 17.5 g/ha: 17.5 g ai/ha
Protocol: as §2

Lamium purpureum = assay: Postemergence herbicidal activity in cereal crops; type: in vivo; conditions: post-emergent, after 20-22 days; for pest or weed control at 17.5 g/ha: 17.5 g ai/ha
Protocol: as §2

barley (Hordeum vulare) = assay: Postemergence herbicidal activity in cereal crops; type: in vivo; conditions: crop, post-emergent, after 20-22 days; for pest or weed control at 17.5 g/ha: 17.5 g ai/ha
Protocol: as §2

Galium aparine = assay: Postemergence herbicidal activity in cereal crops; type: in vivo; conditions: post-emergent, after 20-22 days; for pest or weed control at 17.5 g/ha: 17.5 g ai/ha
Protocol: as §2

[5] = tested on: lambsquarter (Chenopodium album); assay: Preemergence herbicidal activity; type: in vivo; conditions: pre-emergent, 140 g ai/ha, after 20-22 days
Source text: (§3) Seeds of the desired test plant species were planted in a soil matrix prepared by mixing a loam soil (43 percent silt, 19 percent clay, and 38 percent sand, with a pH of about 8.1 and an organic matter content of about 1.5 percent) and sand in a 70 to 30 ratio. The soil matrix was contained in plastic pots with a surface area of 113 square centimeters. When required to ensure good germination and healthy plants, a fungicide treatment and/or other chemical or physical treatment was applied. […] Compound requirements are based upon a 12 mL application volume at a rate of 187 L/ha. Formulated compounds were applied to the plant material with an overhead Mandel track sprayer equipped with a […] nozzles calibrated to deliver 187 L/ha over an application area of 0.503 square meters at a spray height of 18 inches (43 cm) above the soil surface. Control plants were sprayed in the same manner with the solvent blank. The treated pots and control pots were placed in a greenhouse maintained with an approximate 15 hour photoperiod and temperatures of about 23-29° C. during the day and 22-28° C. during the night. Nutrients and water were added on a regular basis and supplemental lighting was provided with overhead metal halide 1000-watt lamps as necessary. The water was added by top-irrigation.

[6] = tested on: velvetleaf (Abutilon theophrasti); assay: Preemergence herbicidal activity; type: in vivo; conditions: pre-emergent, 140 g ai/ha, after 20-22 days
Source text: as §3

[7] = tested on: redroot pigweed (Amaranthus retroflexus); assay: Preemergence herbicidal activity; type: in vivo; conditions: pre-emergent, 140 g ai/ha, after 20-22 days
Source text: as §3

[8] = Papaver rhoeas, post-emergence, 480 h, 70 g ai/ha, read-out: % Control PAPRH
[9] = Veronica persica, post-emergence, 480 h, 70 g ai/ha, read-out: % Control VERPE
[10] = Triticum aestivum, post-emergence, 480 h, 70 g ai/ha, read-out: % Control TRZAS
[11] = Lamium purpureum, post-emergence, 480 h, 70 g ai/ha, read-out: % Control LAMPU
[12] = Hordeum, post-emergence, 480 h, 70 g ai/ha, read-out: % Control HORVS
[13] = Galium aparine, post-emergence, 480 h, 70 g ai/ha, read-out: % Control GALAP
[14] = Papaver rhoeas, post-emergence, 480 h, read-out: % Control PAPRH
[15] = Veronica persica, post-emergence, 480 h, read-out: % Control VERPE
[16] = Triticum aestivum, post-emergence, 480 h, read-out: % Control TRZAS
[17] = Lamium purpureum, post-emergence, 480 h, read-out: % Control LAMPU
[18] = Hordeum, post-emergence, 480 h, read-out: % Control HORVS
[19] = Galium aparine, post-emergence, 480 h, read-out: % Control GALAP

## COC(=O)c1nc(-c2ccc(Cl)c(SC)c2F)cc(N)c1Cl [Compound 1]
[1]
  % Control CHEAL: 100%
[2]
  % Control ABUTH: 85%
[3]
  % Control AMARE: 100%
Papaver rhoeas; 35 g ai/ha
  % Control PAPRH: 80%
Veronica persica; 35 g ai/ha
  % Control VERPE: 50%
[4]; 35 g ai/ha
  % Control TRZAS: 5%
Lamium purpureum; 35 g ai/ha
  % Control LAMPU: 80%
Barley (Hordeum vulare); 35 g ai/ha
  % Control HORVS: 10%
Galium aparine; 35 g ai/ha
  % Control GALAP: 85%
[5]
  % Control CHEAL: 90%
[6]
  % Control ABUTH: 80%
[7]
  % Control AMARE: 100%

## COC(=O)c1nc(-c2cc(OC)c(Cl)cc2F)cc(N)c1Cl [Compound 43, 4-Amino-3-chloro-6-(4-chloro-2-fluoro-5-methoxyphenyl)pyridine-2-carboxylic acid methyl ester]
[1]
  pest or weed control at 140 g/ha: 100%
[2]
  pest or weed control at 140 g/ha: 100%
[3]
  pest or weed control at 140 g/ha: 100%
Papaver rhoeas; [8]
  pest or weed control at 70 g/ha: 85%
Veronica persica; [9]
  pest or weed control at 70 g/ha: 30%
[4]; [10]
  plant injury at 70 g/ha: 0%
Lamium purpureum; [11]
  pest or weed control at 70 g/ha: 99%
Barley (Hordeum vulare); [12]
  pest or weed control at 70 g/ha: 5%
Galium aparine; [13]
  pest or weed control at 70 g/ha: 65%
[5]; Chenopodium album, pre-emergence, 480 h, read-out: % Control CHEAL
  pest or weed control at 140 g/ha: 100%
[6]; Abutilon theophrasti, pre-emergence, 480 h, read-out: % Control ABUTH
  pest or weed control at 140 g/ha: 98%
[7]; Amaranthus retroflexus, pre-emergence, 480 h, read-out: % Control AMARE
  pest or weed control at 140 g/ha: 100%

## COC(=O)c1nc(-c2ccc(C(F)(F)F)c(OC)c2F)cc(N)c1Cl [Compound 45, 4-Amino-3-chloro-6-(2-fluoro-3-methoxy-4-trifluoromethylphenyl)pyridine-2-carboxylic acid methyl ester]
[1]
  pest or weed control at 140 g/ha: 95%
[2]
  pest or weed control at 140 g/ha: 100%
[3]
  pest or weed control at 140 g/ha: 80%
other
  melting point: 144 to 146 °C
Papaver rhoeas; [14]
  pest or weed control at 17.5 g/ha: 90%
Veronica persica; [15]
  pest or weed control at 17.5 g/ha: 80%
[4]; [16]
  plant injury at 17.5 g/ha: 0%
Lamium purpureum; [17]
  pest or weed control at 17.5 g/ha: 100%
Barley (Hordeum vulare); [18]
  pest or weed control at 17.5 g/ha: 0%
Galium aparine; [19]
  pest or weed control at 17.5 g/ha: 90%

## COC(=O)c1nc(-c2c(F)cc(F)c(OC)c2F)cc(N)c1Cl [Compound 56, 4-Amino-3-chloro-6-(2,4,6-trifluoro-3-methyoxyphenyl)pyridine-2-carboxylic acid, methyl ester]
[1]
  % Control CHEAL: 100%
[2]
  % Control ABUTH: 100%
[3]
  % Control AMARE: 100%
Papaver rhoeas; 70 g ai/ha
  % Control PAPRH: 100%
Veronica persica; 70 g ai/ha
  % Control VERPE: 95%
[4]; 70 g ai/ha
  % Control TRZAS: 0%
Lamium purpureum; 70 g ai/ha
  % Control LAMPU: 99%
Barley (Hordeum vulare); 70 g ai/ha
  % Control HORVS: 10%
Galium aparine; 70 g ai/ha
  % Control GALAP: 100%

## COC(=O)c1nc(-c2ccc(Cl)c(C(F)C(F)(F)F)c2F)cc(N)c1Cl (stereo not drawn) [Compound 65, 4-Amino-3-chloro-6-[4-chloro-2-fluoro-3-(1,2,2,2-tetrafluoroethyl)phenyl)-pyridine-2-carboxylic acid, methyl ester]
[1]
  pest or weed control at 140 g/ha: 90%
[2]
  pest or weed control at 140 g/ha: 95%
[3]
  pest or weed control at 140 g/ha: 100%
Papaver rhoeas; Papaver rhoeas, post-emergence, 480 h, 35 g ai/ha, read-out: % Control PAPRH
  pest or weed control at 35 g/ha: 90%
Veronica persica; Veronica persica, post-emergence, 480 h, 35 g ai/ha, read-out: % Control VERPE
  pest or weed control at 35 g/ha: 40%
[4]; Triticum aestivum, post-emergence, 480 h, 35 g ai/ha, read-out: % Control TRZAS
  plant injury at 35 g/ha: 15%
Lamium purpureum; Lamium purpureum, post-emergence, 480 h, 35 g ai/ha, read-out: % Control LAMPU
  pest or weed control at 35 g/ha: 95%
Barley (Hordeum vulare); Hordeum, post-emergence, 480 h, 35 g ai/ha, read-out: % Control HORVS
  pest or weed control at 35 g/ha: 5%
Galium aparine; Galium aparine, post-emergence, 480 h, 35 g ai/ha, read-out: % Control GALAP
  pest or weed control at 35 g/ha: 85%

## COC(=O)c1nc(-c2ccc(C(F)F)c(OC)c2F)cc(N)c1Cl [Compound 71, 4-Amino-3-chloro-6-(4-difluoromethyl-2-fluoro-3-methoxyphenyl)pyridine-2-carboxylic acid, methyl ester]
[1]
  pest or weed control at 140 g/ha: 85%
[2]
  pest or weed control at 140 g/ha: 100%
[3]
  pest or weed control at 140 g/ha: 80%
other
  melting point: 145 to 147 °C
Papaver rhoeas; [14]
  pest or weed control at 17.5 g/ha: 95%
Veronica persica; [15]
  pest or weed control at 17.5 g/ha: 50%
[4]; [16]
  plant injury at 17.5 g/ha: 0%
Lamium purpureum; [17]
  pest or weed control at 17.5 g/ha: 95%
Barley (Hordeum vulare); [18]
  pest or weed control at 17.5 g/ha: 0%
Galium aparine; [19]
  pest or weed control at 17.5 g/ha: 95%

## COC(=O)c1nc(-c2cc(OC)c(F)cc2F)cc(N)c1Cl [Compound 73, 4-Amino-3-chloro-6-(2,4-difluoro-5-methoxyphenyl)pyridine-2-carboxylic acid, methyl ester]
[1]
  pest or weed control at 140 g/ha: 100%
[2]
  pest or weed control at 140 g/ha: 90%
[3]
  pest or weed control at 140 g/ha: 100%
other
  melting point: 128 to 130 °C
Papaver rhoeas; [8]
  pest or weed control at 70 g/ha: 95%
Veronica persica; [9]
  pest or weed control at 70 g/ha: 60%
[4]; [10]
  plant injury at 70 g/ha: 0%
Lamium purpureum; [11]
  pest or weed control at 70 g/ha: 99%
Barley (Hordeum vulare); [12]
  pest or weed control at 70 g/ha: 0%
Galium aparine; [13]
  pest or weed control at 70 g/ha: 95%

## CCCCOCCOC(=O)c1nc(-c2ccc(Cl)c(OC)c2F)cc(N)c1Cl [Compound 87, 4-Amino-3-chloro-6-(4-chloro-2-fluoro-3-methoxyphenyl)pyridine-2-carboxylic acid, 2-butoxy-ethyl ester]
[1]
  pest or weed control at 140 g/ha: 100%
[2]
  pest or weed control at 140 g/ha: 100%
[3]
  pest or weed control at 140 g/ha: 100%
Papaver rhoeas; [14]
  pest or weed control at 17.5 g/ha: 100%
Veronica persica; [15]
  pest or weed control at 17.5 g/ha: 50%
[4]; [16]
  plant injury at 17.5 g/ha: 0%
Lamium purpureum; [17]
  pest or weed control at 17.5 g/ha: 100%
Barley (Hordeum vulare); [18]
  pest or weed control at 17.5 g/ha: 0%
Galium aparine; [19]
  pest or weed control at 17.5 g/ha: 100%
